Values of other authors as cited in US20200338153A1, “ANAEROBIC ANTIOXIDANT COMPOSITION” (priority 2019, published 2020).

Conditions: in vivo

- fraction renally excreted by the body: 30%
Structure (SMILES): CC(=O)N[C@@H](CS)C(=O)O [NAC, N-acetylcysteine]
